Consider 1 molecule from patent publication US12622910B2, “Inhibitors of Bruton's tyrosine kinase and methods of their use” (Janssen Pharmaceutica NV, priority 2021, dated 2026).

Where only a bound is given, the exact number is not on record here.

The term microsomal CLint denotes a measure of how fast metabolising enzymes remove a compound, apart from limits set by blood flow.

Data set [1] is described as follows: Metabolic stability in liver microsomes. The data set is classed as in vitro ADME, mouse. The procedure: Additional Data on Preclinical PK Profile—Protein binding of the compound of Formula (III) was studied using an equilibrium dialysis method in plasma from human, cynomolgus monkey, beagle dog, Sprague Dawley rat, CD-1 mouse, and guinea pig at 0.25, 2.5, and 25 μM. […] In human and monkey, the plasma protein binding was concentration dependent. […] Free fraction of the compound of Formula (III) in liver microsomes from various species ranged from 75.1% to 87.9% at 0.25 mg/mL and from 58.9% to 86.5% at 1.0 mg/mL (Table 17). […] In hepatocytes, the compound of Formula (III) turnover followed a similar trend, with T1/2 ranging from 75.3 minutes in monkey to 278.1 minutes in human.
Background: Liver microsomes are vesicles of endoplasmic reticulum, rich in cytochrome P450 enzymes.

Another data set addresses T1, BTK (Rattus norvegicus, UniProt Q5S255).
T1 construct: Cell lysates were prepared from the blood samples using cell lysis buffer; from tissue; host or cells: blood of female Wistar rats (cell lysates)
Nature of the data set: Rat in vivo BTK target engagement (occupancy ELISA in blood). The conditions noted are these: read-out: BTK target occupancy after 8 and 24 hours. More on the design: species or system female Wistar rat. How it is done:
In Vivo BTK Engagement—BTK receptor occupancy and plasma concentrations of the Compound of Formula (III) increased in a dose-dependent manner following a single oral dose in rat (FIG. 15). Doses of 2 mg/kg or higher consistently achieved sustained target occupancy after 8 and 24 hours (>75% following a 2 mg/kg dose, ≥88% following a 3 mg/kg dose, and ≥99% following a 10 mg/kg dose). Target occupancy was maintained at 24 h even after parent drug plasma levels decreased, indicating persistent BTK occupancy, a hallmark of the covalent mechanism. Considering that 70% to 80% BTK target engagement for 7 to 8 hours in a chronic dosing regimen is associated with anti-inflammatory activity in rodent efficacy models, 75% target engagement at 7.5 hours was identified as the desired level of target engagement.
BTK Occupancy PK/PD Model—Rat in vivo target engagement—Two studies were conducted in which the compound of Formula (III) formulated in 20% HPCD, was administered orally to female Wistar rats. In study 1, compound of Formula (III) was evaluated at oral doses of 0.3, 1, 3 and 10 mg/kg; in study 2, compound of Formula (III) was evaluated at oral doses of 0.1, 0.3, 1, 2 and 3 mg/kg. (n=4/group for both studies). In both experiments, at assigned time points postdose (0.5, 4, 8 and 24 hr), animals were anesthetized and approximately 140 μL of blood was obtained by retro-orbital bleeding into heparinized tubes. These samples were split into two aliquots, with one aliquot used to measure compound levels by liquid chromatography mass spectrophotometry method and the other aliquot to assess BTK occupancy by a target-site occupancy ELISA.
Cell lysates were prepared from the blood samples using cell lysis buffer (BD Pharmingen™, BD Biosciences). Free BTK protein in each sample is tagged by the addition a biotinylated probe (1 μL of a 25 μM working solution per sample, final concentration 250 nM), which is then captured on the surface of a streptavidin coated microtiter plate and detected by ELISA using an antibody specific for BTK (BD Transduction). […]

T1 sequence (Q5S255 1-660): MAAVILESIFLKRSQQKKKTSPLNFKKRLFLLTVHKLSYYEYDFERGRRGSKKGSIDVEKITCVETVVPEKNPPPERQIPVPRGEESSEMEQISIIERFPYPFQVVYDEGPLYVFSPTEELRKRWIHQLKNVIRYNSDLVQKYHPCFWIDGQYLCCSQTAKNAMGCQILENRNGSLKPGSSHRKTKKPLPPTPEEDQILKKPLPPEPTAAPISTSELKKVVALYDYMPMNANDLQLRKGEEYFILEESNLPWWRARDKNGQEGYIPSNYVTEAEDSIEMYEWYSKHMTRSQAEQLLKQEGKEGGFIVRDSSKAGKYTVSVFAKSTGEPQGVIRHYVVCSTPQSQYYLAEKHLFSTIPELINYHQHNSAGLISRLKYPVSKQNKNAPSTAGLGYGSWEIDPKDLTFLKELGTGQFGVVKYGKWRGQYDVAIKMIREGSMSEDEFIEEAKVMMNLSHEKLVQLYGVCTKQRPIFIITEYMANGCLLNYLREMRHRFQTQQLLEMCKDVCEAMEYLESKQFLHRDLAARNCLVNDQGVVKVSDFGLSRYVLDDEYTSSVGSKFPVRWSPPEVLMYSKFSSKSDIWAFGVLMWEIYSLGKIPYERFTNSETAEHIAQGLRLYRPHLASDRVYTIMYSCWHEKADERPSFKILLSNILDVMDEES

In the case of `C=CC(=O)N[C@H]1CCC[C@H]1NC(=O)c1sc2nccc3c2c1NC(=O)N3c1cnc(CC(C)C)cc1C` (atropisomer, axis not shown) [compound of Formula (III), N-((1R,2S)-2-Acrylamidocyclopentyl)-5-(S)-(6-isobutyl-4-methylpyridin-3-yl)-4-oxo-4,5-dihydro-3H-1-thia-3,5,8-triazaacenaphthylene-2-carboxamide], the “Extraction Ratio, liver microsomes” value in data set [1] (Mouse) was determined as 0.79. This molecule also displayed a microsomal CLint in data set [1] (mouse, liver microsomes) of 142 µL/min/mg. Further, the half-life in data set [1] (mouse, liver microsomes, read-out: T1/2, liver microsomes) came to 4.9 min. Also, the receptor occupancy at 2 mg/kg at BTK (single oral 2 mg/kg) was > 75%. On BTK (single oral 3 mg/kg), the receptor occupancy at 3 mg/kg is ≥ 88%. On BTK (single oral 10 mg/kg), the receptor occupancy at 10 mg/kg was ≥ 99%.
